Source: publication PMC4415882 (Biochemistry, 2013)

Legend:
[1] = target: NPP (nucleotide pyrophosphatase/phosphodiesterase) (Xanthomonas citri, UniProt A0A0U5FM15, T90S); conditions: read-out: average; average over substrates pNPP, Me-pNPP, bis-pNPP, dT-5'-pNPP (subsaturating); 0.1 M Tris-HCl pH 8.0, 0.5 M NaCl, 100 µM ZnCl2, 25 °C; competitive
[2] = target: NPP (nucleotide pyrophosphatase/phosphodiesterase) (Xanthomonas citri, UniProt A0A0U5FM15, L123A); conditions: read-out: average; average over substrates pNPP, Me-pNPP, bis-pNPP, dT-5'-pNPP (subsaturating); 0.1 M Tris-HCl pH 8.0, 0.5 M NaCl, 100 µM ZnCl2, 25 °C; competitive

[O]=[V]([OH])([OH])[OH] [vanadate]
Ki [1]: 340 ± 140 µM | Ki [2]: 154 ± 8 µM
